According to US6706663B2, “Herbicidal 3-heterocyclic substituted benzisothiazole and benzisoxazole compounds” (Wyeth, priority 2000, dated 2004):

What was measured:
[1] = system: ECHORC (Echinochloa oryzoides); assay: Flooded paddy, preemergence weed control; assay type: in vivo, Echinochloa oryzoides (Ard.) Fritsch.; settings: rated 3-4 weeks after treatment, 0-9 rating scale
Method in brief: (§1)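 Flooded silt loam pots, seeds in upper 0.5 cm, water held 1.5–3 cm deep; greenhouse; visual 0-9 score vs control.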

[2] = system: GLXMAW (Soybean, Williams); assay: Preemergence herbicidal evaluation; assay type: in vivo, Glycine max, (L.) Merr. cv Williams; settings: rated 4-5 weeks after treatment
[3] = system: ECHCG (Echinochloa crus-galli); assay: Postemergence herbicidal evaluation; assay type: in vivo, (L.) Beau; settings: postemergence
Method in brief: (§2)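 Visual 0–9 injury scores versus control plants, covering stand, vigour, malformation, size, chlorosis and general appearance, taken four to five weeks post-spray and averaged over replicate tests. Plants were sprayed at roughly two weeks old and held on greenhouse benches.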

[4] = system: ZEAMX (Corn, Field); assay: Postemergence herbicidal evaluation; assay type: in vivo, Zea mays, L.; settings: postemergence
Method in brief: as §2

[5] = system: SAGPY (Sagittaria pygmaea); assay: Flooded paddy, preemergence weed control; assay type: in vivo, L.; settings: rated 3-4 weeks after treatment, 0-9 rating scale
Method in brief: as §1

[6] = system: CASOB (Cassia obtusifolia); assay: Postemergence herbicidal evaluation; assay type: in vivo, L.; settings: postemergence
Method in brief: as §2

[7] = system: CHEAL (Chenopodium album); assay: Postemergence herbicidal evaluation; assay type: in vivo, L.; settings: postemergence
Method in brief: as §2

[8] = system: AMBEL (Ambrosia artemisifolia); assay: Postemergence herbicidal evaluation; assay type: in vivo, L.; settings: postemergence
Method in brief: as §2

[9] = system: ORYSAT (Rice, Tebonnet); assay: Preemergence herbicidal evaluation; assay type: in vivo, Oryza sativa, (L.) Tebonnet; settings: rated 4-5 weeks after treatment
[10] = system: ORYSAT (Rice, Tebonnet); assay: Postemergence herbicidal evaluation; assay type: in vivo, Oryza sativa, (L.) Tebonnet; settings: postemergence
Method in brief: as §2

[11] = system: IPOHE (Ipomoea hederacea); assay: Preemergence herbicidal evaluation; assay type: in vivo, (L.) Jacq.; settings: rated 4-5 weeks after treatment
[12] = system: GLXMA (Soybean); assay: Preemergence herbicidal evaluation; assay type: in vivo, Glycine max, (L.) Merr.; settings: preemergence, rated 4-5 weeks after treatment
[13] = system: CYPIR (Cyperus iria); assay: Flooded paddy, preemergence weed control; assay type: in vivo; settings: rated 3-4 weeks after treatment, 0-9 rating scale
Method in brief: as §1

[14] = system: ECHORC (Echinochloa oryzoides); assay: Flooded paddy, postemergence weed control; assay type: in vivo, Echinochloa oryzoides (Ard.) Fritsch.; settings: postemergence weeds, rated 3-4 weeks after treatment
Excerpt: (§3) Results of herbicide evaluation are expressed on a rating scale (0-9). The scale is based upon a visual observation of plant stand, vigor, malformation, size, chlorosis and overall plant appearance as compared with a control.
(§4) Plastic containers containing weeds which are 3 to 5 cm tall and rice seedlings at the 1.5 to 2.5 leaf stage are flooded with water. The water is maintained at 1.5 to 3 cm above the soil surface for the duration of the experiment. Test compounds are applied as aqueous/acetone mixtures 50/50 v/v directly into the flood water to provide the equivalent of about 0.0320 to 0.2500 kg/ha of active ingredient. The treated containers are placed on greenhouse benches and cared for in accordance with conventional greenhouse procedures. Three to four weeks after treatment, the test is terminated and each container is examined and herbicidal effect rated according to the rating system provided in Example 87. The compounds evaluated are identified in Example 87 and plant species used are identified in Example 89.

[15] = system: ORYSAT (Rice, Tebonnet); assay: Flooded paddy, post-transplant and postemergence rice tolerance; assay type: in vivo, Oryza sativa, (L.) Tebonnet; settings: post-transplant rice, rated 3-4 weeks after treatment
Excerpt: as §3, §4

[16] = system: TRZAWR (Wheat, Winter, cv Riband); assay: Preemergence herbicidal evaluation; assay type: in vivo, Triticum aestivum; settings: rated 4-5 weeks after treatment
Method in brief: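 Visual 0-9 rating versus untreated control, taken four to five weeks post-treatment, scoring stand, vigor, malformation, size, chlorosis and overall appearance. Compound applied as aqueous acetone spray to freshly seeded soil cups, then kept under standard greenhouse care.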

[17] = system: MOOVA (Monochoria vaginalis); assay: Flooded paddy, postemergence weed control; assay type: in vivo, Presl.; settings: postemergence weeds, rated 3-4 weeks after treatment
Excerpt: as §3, §4

[18] = system: SAGPY (Sagittaria pygmaea); assay: Flooded paddy, postemergence weed control; assay type: in vivo, L.; settings: postemergence weeds, rated 3-4 weeks after treatment
Excerpt: as §3, §4

[19] = system: CYPSE (Cyperus serotinus); assay: Flooded paddy, postemergence weed control; assay type: in vivo, Rottb.; settings: postemergence weeds, rated 3-4 weeks after treatment
Excerpt: as §3, §4

[20] = preemergence, rate 0.0620 kg/ha
[21] = preemergence, rate 0.1250 kg/ha
[22] = preemergence, rate 0.2500 kg/ha

Cn1c(C(F)(F)F)cc(=O)n(-c2ccc3snc(C4OCC(CS(C)(=O)=O)O4)c3c2)c1=O (single isomer, unassigned) [Compound 86, 1-methyl-3-[3-[4-[(methylsulfonyl)methyl]-1,3-dioxolan-2-yl]-1,2-benzisothiazol-5-yl]-6-(trifluoromethyl)uracil]
ECHORC herbicidal rating ([1]; rate 0.0320 kg/ha): 0.0
ECHORC herbicidal rating ([1]; rate 0.1250 kg/ha): 3.0
Preemergence herbicidal rating GLXMAW [2, 20]: 7.0
Preemergence herbicidal rating GLXMAW [2, 21]: 9.0
Preemergence herbicidal rating GLXMAW [2, 22]: 9.0
ECHCG herbicidal rating ([3]; rate 0.0320 kg/ha): 4.0
ECHCG herbicidal rating ([3]; rate 0.0620 kg/ha): 5.0
ZEAMX herbicidal rating ([4]; rate 0.0320 kg/ha): 4.0
ZEAMX herbicidal rating ([4]; rate 0.0620 kg/ha): 4.0
SAGPY herbicidal rating ([5]; rate 0.0320 kg/ha): 0.0
SAGPY herbicidal rating ([5]; rate 0.1250 kg/ha): 0.0
CASOB herbicidal rating ([6]; rate 0.0320 kg/ha): 7.0
CASOB herbicidal rating ([6]; rate 0.0620 kg/ha): 9.0
CHEAL herbicidal rating ([7]; rate 0.0320 kg/ha): 9.0
CHEAL herbicidal rating ([7]; rate 0.0620 kg/ha): 9.0
AMBEL herbicidal rating ([8]; rate 0.0320 kg/ha): 9.0
AMBEL herbicidal rating ([8]; rate 0.0620 kg/ha): 9.0
Preemergence herbicidal rating ORYSAT [9, 20]: 5.0
Preemergence herbicidal rating ORYSAT [9, 21]: 7.0
Preemergence herbicidal rating ORYSAT [9, 22]: 9.0
ORYSAT herbicidal rating ([10]; rate 0.0320 kg/ha): 4.0
ORYSAT herbicidal rating ([10]; rate 0.0620 kg/ha): 5.5
Preemergence herbicidal rating IPOHE [11, 20]: 4.0
Preemergence herbicidal rating IPOHE [11, 21]: 9.0
Preemergence herbicidal rating IPOHE [11, 22]: 9.0
Preemergence herbicidal rating GLXMA ([12]; rate 0.0620 kg/ha): 5.0
Preemergence herbicidal rating GLXMA ([12]; rate 0.1250 kg/ha): 9.0
Preemergence herbicidal rating GLXMA ([12]; rate 0.2500 kg/ha): 9.0
CYPIR herbicidal rating ([13]; rate 0.0320 kg/ha): 0.0
CYPIR herbicidal rating ([13]; rate 0.1250 kg/ha): 0.0

Cn1c(C(F)(F)F)cc(=O)n(-c2ccc3snc(C4OCC(CS(C)(=O)=O)O4)c3c2)c1=O (single isomer, unassigned) [Compound 87, 1-methyl-3-[3-[4-[(methylsulfonyl)methyl]-1,3-dioxolan-2-yl]-1,2-benzisothiazol-5-yl]-6-(trifluoromethyl)uracil]
ECHORC herbicidal rating ([1]; rate 0.0320 kg/ha): 0.0
ECHORC herbicidal rating ([1]; rate 0.1250 kg/ha): 0.0
Preemergence herbicidal rating GLXMAW [2, 20]: 9.0
Preemergence herbicidal rating GLXMAW [2, 21]: 9.0
Preemergence herbicidal rating GLXMAW [2, 22]: 9.0
ECHCG herbicidal rating ([3]; rate 0.0320 kg/ha): 3.0
ECHCG herbicidal rating ([3]; rate 0.0620 kg/ha): 4.0
ZEAMX herbicidal rating ([4]; rate 0.0320 kg/ha): 3.5
ZEAMX herbicidal rating ([4]; rate 0.0620 kg/ha): 3.5
SAGPY herbicidal rating ([5]; rate 0.0320 kg/ha): 0.0
SAGPY herbicidal rating ([5]; rate 0.1250 kg/ha): 0.0
CASOB herbicidal rating ([6]; rate 0.0320 kg/ha): 9.0
CASOB herbicidal rating ([6]; rate 0.0620 kg/ha): 9.0
CHEAL herbicidal rating ([7]; rate 0.0320 kg/ha): 9.0
CHEAL herbicidal rating ([7]; rate 0.0620 kg/ha): 9.0
AMBEL herbicidal rating ([8]; rate 0.0320 kg/ha): 9.0
AMBEL herbicidal rating ([8]; rate 0.0620 kg/ha): 9.0
Preemergence herbicidal rating ORYSAT [9, 20]: 2.0
Preemergence herbicidal rating ORYSAT [9, 21]: 3.0
Preemergence herbicidal rating ORYSAT [9, 22]: 5.0
ORYSAT herbicidal rating ([10]; rate 0.0320 kg/ha): 3.0
ORYSAT herbicidal rating ([10]; rate 0.0620 kg/ha): 3.5
Preemergence herbicidal rating IPOHE [11, 20]: 5.0
Preemergence herbicidal rating IPOHE [11, 21]: 6.0
Preemergence herbicidal rating IPOHE [11, 22]: 9.0
Preemergence herbicidal rating GLXMA ([12]; rate 0.0620 kg/ha): 9.0
Preemergence herbicidal rating GLXMA ([12]; rate 0.1250 kg/ha): 9.0
Preemergence herbicidal rating GLXMA ([12]; rate 0.2500 kg/ha): 9.0
CYPIR herbicidal rating ([13]; rate 0.0320 kg/ha): 0.0
CYPIR herbicidal rating ([13]; rate 0.1250 kg/ha): 5.0

Cn1c(C(F)(F)F)cc(=O)n(-c2ccc3snc(C4OC(C)(C)C(C)(C)O4)c3c2)c1=O [Compound 56, 1-methyl-3-[3-(4,4,5,5-tetramethyl-1,3-dioxolan-2-yl)-1,2-benzisothiazol-5-yl]-6-(trifluoromethyl)uracil]
herbicide rating (0-9) ECHORC ([14]; 0.0320 kg/ha into flood water): 9.0
herbicide rating (0-9) ECHORC ([14]; 0.0620 kg/ha into flood water): 9.0
herbicide rating (0-9) ECHORC ([14]; 0.1250 kg/ha into flood water): 9.0
herbicide rating (0-9) ORYSAT (rice tolerance) ([15]; 0.0320 kg/ha into flood water): 7.0
herbicide rating (0-9) ORYSAT (rice tolerance) ([15]; 0.0620 kg/ha into flood water): 7.0
herbicide rating (0-9) ORYSAT (rice tolerance) ([15]; 0.1250 kg/ha into flood water): 9.0
herbicidal rating, ECHORC ([1]; rate 0.0080 kg/ha): 9.0
herbicidal rating, ECHORC ([1]; rate 0.0320 kg/ha): 9.0
herbicidal rating, ECHORC ([1]; rate 0.1250 kg/ha): 9.0
Preemergence herbicidal rating GLXMAW ([2]; Rate 0.0620 kg/ha): 7.5
Preemergence herbicidal rating GLXMAW ([2]; Rate 0.1250 kg/ha): 9.0
Preemergence herbicidal rating GLXMAW ([2]; Rate 0.2500 kg/ha): 9.0
ECHCG herbicidal rating ([3]; rate 0.0320 kg/ha): 2.0
ECHCG herbicidal rating ([3]; rate 0.0620 kg/ha): 4.0
Preemergence herbicidal rating TRZAWR ([16]; Rate 0.0620 kg/ha): 6.0
Preemergence herbicidal rating TRZAWR ([16]; Rate 0.1250 kg/ha): 6.0
Preemergence herbicidal rating TRZAWR ([16]; Rate 0.2500 kg/ha): 7.0
ZEAMX herbicidal rating ([4]; rate 0.0320 kg/ha): 5.0
ZEAMX herbicidal rating ([4]; rate 0.0620 kg/ha): 5.5
herbicide rating (0-9) MOOVA ([17]; 0.0320 kg/ha into flood water): 2.0
herbicide rating (0-9) MOOVA ([17]; 0.0620 kg/ha into flood water): 4.0
herbicide rating (0-9) MOOVA ([17]; 0.1250 kg/ha into flood water): 7.0
herbicidal rating, SAGPY ([5]; rate 0.0080 kg/ha): 0.0
herbicidal rating, SAGPY ([5]; rate 0.0320 kg/ha): 0.0
herbicidal rating, SAGPY ([5]; rate 0.1250 kg/ha): 6.3
CASOB herbicidal rating ([6]; rate 0.0320 kg/ha): 3.0
CASOB herbicidal rating ([6]; rate 0.0620 kg/ha): 7.0
CHEAL herbicidal rating ([7]; rate 0.0320 kg/ha): 7.0
CHEAL herbicidal rating ([7]; rate 0.0620 kg/ha): 9.0
AMBEL herbicidal rating ([8]; rate 0.0320 kg/ha): 9.0
AMBEL herbicidal rating ([8]; rate 0.0620 kg/ha): 9.0
Preemergence herbicidal rating ORYSAT ([9]; Rate 0.0620 kg/ha): 5.0
Preemergence herbicidal rating ORYSAT ([9]; Rate 0.1250 kg/ha): 6.0
Preemergence herbicidal rating ORYSAT ([9]; Rate 0.2500 kg/ha): 6.0
ORYSAT herbicidal rating ([10]; rate 0.0320 kg/ha): 3.5
ORYSAT herbicidal rating ([10]; rate 0.0620 kg/ha): 4.5
Preemergence herbicidal rating IPOHE ([11]; Rate 0.0620 kg/ha): 7.5
Preemergence herbicidal rating IPOHE ([11]; Rate 0.1250 kg/ha): 7.5
Preemergence herbicidal rating IPOHE ([11]; Rate 0.2500 kg/ha): 9.0
herbicide rating (0-9) SAGPY ([18]; 0.0320 kg/ha into flood water): 0.0
herbicide rating (0-9) SAGPY ([18]; 0.0620 kg/ha into flood water): 0.0
herbicide rating (0-9) SAGPY ([18]; 0.1250 kg/ha into flood water): 2.0
herbicidal rating, CYPIR ([13]; rate 0.0080 kg/ha): 6.0
herbicidal rating, CYPIR ([13]; rate 0.0320 kg/ha): 8.0
herbicidal rating, CYPIR ([13]; rate 0.1250 kg/ha): 9.0
herbicide rating (0-9) CYPSE ([19]; 0.0620 kg/ha into flood water): 0.0
herbicide rating (0-9) CYPSE ([19]; 0.1250 kg/ha into flood water): 9.0
